Consider three molecules from US20060205769A1, “Piperidine or 8-aza-bicyclo[3.2.1]oct-3-yl derivatives useful as modulators of chemokine receptor activity” (priority 2003, published 2006).

In general, IC50 refers to the concentration that inhibits the measured activity by half.

Where a name gives a salt, the structure may show the parent alone.

The assay concerns the target T1, recombinant human CCR5 receptor (Homo sapiens, UniProt P51681).
T1 construct: expressed in transfected cells; host or cells: Chinese hamster ovary (CHO) cells; membranes
Nature of the assay: in vitro radioligand binding assay: inhibition of binding of iodinated MIP-1α to membranes of CHO cells expressing CCR5 (scintillation proximity). To be noted: displacement of 0.1 nM iodinated MIP-1α; negative log (base 10) of IC50; average if tested more than once. How it is done:
The ability of compounds to inhibit the binding of MIP-1α was assessed by an in vitro radioligand binding assay. Membranes were prepared from Chinese hamster ovary cells which expressed the recombinant human CCR5 receptor. These membranes were incubated with 0.1 nM iodinated MIP-1α, scintillation proximity beads and various concentrations of the compounds of the invention in 96-well plates. The amount of iodinated MIP-1α bound to the receptor was determined by scintillation counting. Competition curves were obtained for compounds and the concentration of compound which displaced 50% of bound iodinated MIP-1α was calculated (IC50).
In Table IV the results are presented as Pic50 values. A Pic50 value is the negative log (to base 10) of the IC50 result, so an IC50 of 1 μM (that is 1×10^−6M) gives a Pic50 of 6. If a compound was tested more than once then the data below is an average of the probative tests results.
A general note: In a scintillation proximity assay essentially only radioactivity close to the scintillant gives light.

T1 sequence (P51681 whole entry): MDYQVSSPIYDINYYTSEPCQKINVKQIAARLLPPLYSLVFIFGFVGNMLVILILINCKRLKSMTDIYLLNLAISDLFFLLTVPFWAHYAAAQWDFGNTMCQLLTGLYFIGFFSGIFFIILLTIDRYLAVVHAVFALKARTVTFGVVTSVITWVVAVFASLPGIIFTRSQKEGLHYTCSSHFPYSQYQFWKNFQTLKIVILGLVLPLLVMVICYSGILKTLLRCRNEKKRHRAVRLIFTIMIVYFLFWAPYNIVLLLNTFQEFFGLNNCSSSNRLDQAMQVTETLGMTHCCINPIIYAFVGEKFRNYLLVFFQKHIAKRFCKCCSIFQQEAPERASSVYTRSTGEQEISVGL

On to `CS(=O)(=O)N1CCC([C@@H](CCN2CCC(CCS(=O)(=O)C3CCN(S(=O)(=O)C(F)(F)F)CC3)CC2)c2cc(F)cc(F)c2)CC1` [Table I Compound 3], for which the IC50 is 3.98 nM.

Consider `CS(=O)(=O)N1CCC([C@@H](CCN2CCC(CCS(=O)(=O)C3CCNCC3)CC2)c2cc(F)cc(F)c2)CC1` [Table I Compound 2], for which the IC50 is 39.8 nM. In the case of `CS(=O)(=O)c1ccc([C@@H](CCN2CCC(CCS(=O)(=O)N3CCCCC3)CC2)c2cc(F)cc(F)c2)cc1` [Table III Compound 1, (R)-1-{3-(3,5-difluorophenyl)-3-[4-(methylsulfonyl)phenyl]propyl}-4-[2-(piperidin-1-ylsulfonyl)ethyl]piperidine hydrochloride], the IC50 is 3.16 nM.
